We go through three molecules from BindingDB's records for doi:10.1021/jm00083a013 (1992).

One assay addresses T1, Aminopeptidase N (Rattus norvegicus, UniProt P15684).
T1 sequence (P15684 whole entry): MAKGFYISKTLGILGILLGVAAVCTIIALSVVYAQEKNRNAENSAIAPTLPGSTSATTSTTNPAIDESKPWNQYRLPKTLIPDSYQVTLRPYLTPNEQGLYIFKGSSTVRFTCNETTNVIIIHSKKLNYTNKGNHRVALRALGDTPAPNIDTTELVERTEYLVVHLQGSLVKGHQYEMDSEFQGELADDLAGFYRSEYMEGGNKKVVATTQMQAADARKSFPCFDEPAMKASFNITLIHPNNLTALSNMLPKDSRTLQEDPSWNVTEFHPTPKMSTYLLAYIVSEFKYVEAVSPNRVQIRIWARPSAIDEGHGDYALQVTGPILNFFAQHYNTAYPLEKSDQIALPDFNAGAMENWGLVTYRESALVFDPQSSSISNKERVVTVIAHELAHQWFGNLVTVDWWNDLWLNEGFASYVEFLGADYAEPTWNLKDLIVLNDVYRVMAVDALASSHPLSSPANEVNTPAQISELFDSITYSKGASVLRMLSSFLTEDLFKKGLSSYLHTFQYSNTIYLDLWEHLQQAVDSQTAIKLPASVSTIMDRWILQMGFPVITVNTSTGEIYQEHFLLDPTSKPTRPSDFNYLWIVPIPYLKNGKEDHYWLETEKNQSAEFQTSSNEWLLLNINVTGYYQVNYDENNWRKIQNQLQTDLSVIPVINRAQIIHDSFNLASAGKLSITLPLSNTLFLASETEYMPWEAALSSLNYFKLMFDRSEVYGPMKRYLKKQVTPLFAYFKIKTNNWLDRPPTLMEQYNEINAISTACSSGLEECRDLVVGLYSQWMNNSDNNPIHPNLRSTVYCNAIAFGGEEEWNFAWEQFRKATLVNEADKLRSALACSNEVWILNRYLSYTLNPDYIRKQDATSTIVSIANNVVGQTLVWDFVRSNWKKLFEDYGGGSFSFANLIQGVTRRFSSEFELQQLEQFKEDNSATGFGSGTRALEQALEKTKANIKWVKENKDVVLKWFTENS
The assay can be described thus: ChEBML_35366. As to the method:
Compound was evaluated for its inhibitory potency against purified membrane bound rat brain Aminopeptidase M (AP-M) using [3H]Leu-enkephalin as substrate

The target in assay [1] is T2, Aminopeptidase B (Rattus norvegicus, UniProt O09175).
T2 sequence (O09175 whole entry): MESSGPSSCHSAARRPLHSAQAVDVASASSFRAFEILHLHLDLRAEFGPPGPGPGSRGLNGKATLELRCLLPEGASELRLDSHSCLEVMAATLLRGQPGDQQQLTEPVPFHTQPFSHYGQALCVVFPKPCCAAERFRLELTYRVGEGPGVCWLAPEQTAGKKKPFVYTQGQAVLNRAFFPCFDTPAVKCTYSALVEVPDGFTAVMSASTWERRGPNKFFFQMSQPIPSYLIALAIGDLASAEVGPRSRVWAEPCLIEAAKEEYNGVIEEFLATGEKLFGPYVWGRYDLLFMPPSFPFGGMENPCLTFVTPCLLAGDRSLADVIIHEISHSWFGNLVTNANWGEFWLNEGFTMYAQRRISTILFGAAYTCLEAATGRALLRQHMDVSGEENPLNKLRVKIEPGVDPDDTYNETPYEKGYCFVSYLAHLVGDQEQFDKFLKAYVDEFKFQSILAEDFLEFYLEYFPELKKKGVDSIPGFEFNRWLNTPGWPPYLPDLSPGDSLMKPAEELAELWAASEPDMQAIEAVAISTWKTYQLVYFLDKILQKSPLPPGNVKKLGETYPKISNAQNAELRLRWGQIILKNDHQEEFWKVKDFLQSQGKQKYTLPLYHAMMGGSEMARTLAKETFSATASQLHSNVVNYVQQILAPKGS
The assay can be described thus: Compound was evaluated for its inhibitory potency against purified membrane bound rat brain Aminopeptidase B (AP-B) using L-lysine-beta napthylamide as substrate.

Assay [2] has as its target Aminopeptidase N (Rattus norvegicus) (UniProt P15684). The experiment in a line: Compound was evaluated for its inhibitory potency against purified membrane bound rat brain Aminopeptidase.
Assay [3] has as its target T2, Aminopeptidase B. The experiment in a line: ChEBML_35343. As to the method: Compound was evaluated for its inhibitory potency against purified membrane bound rat brain Aminopeptidase B using L-lysine-beta napthylamide as substrate

As usually defined, the IC50 is the concentration needed to halve the response being measured. A lower IC50 goes with greater potency.

Turning to `COC(=O)[C@H](CC(C)C)NC(=O)[C@H](O)[C@@H](N)CCCCN`, the IC50 against Aminopeptidase N was greater than 1000 µM; on Aminopeptidase B [1], 500 µM.

For `COC(=O)[C@H](CC(C)C)NC(=O)[C@@H](O)[C@H](N)CCCCN`, it took 2.01 µM to reach half-maximal inhibition in assay [2] (IC50).

Regarding `COC(=O)[C@H](Cc1c[nH]c2ccccc12)NC(=O)[C@H](O)[C@@H](N)CCCCN`, the IC50 against Aminopeptidase B [3] worked out at 500 µM.
